Earlier results as cited in US20090318549A1, “COMBINATION TREATMENT OF GLAUCOMA” (QLT Plug Delivery, Inc., priority 2008, published 2009).

Key:
[1] = man, after topical administration

## CC(C)OC(=O)CCC/C=C\C[C@@H]1[C@@H](CC[C@@H](O)CCc2ccccc2)[C@H](O)C[C@@H]1O [Latanoprost, isopropyl-(Z)-7[(1R,2R,3R,5S)3,5-dihydroxy-2-[(3R)-3-hydroxy-5-phenylpentyl]cyclopentyl]-5-heptenoate]
[1]
  time at which the peak concentration in the aqueous humor is reached: about two
acetone, ethanol, ethyl acetate, isopropanol, methanol, octanol
  solubility in acetone, ethanol, ethyl acetate, isopropanol, methanol and octanol: freely soluble
acetonitrile
  solubility in acetonitrile: very soluble
water
  solubility in water: practically insoluble
